Data taken from US20260001914A1, “MACROCYCLIC PEPTIDES TARGETING KRAS” (Merck Sharp & Dohme LLC, priority 2022, published 2026).
*1 amine or outer side, *2 acyl side, *3 side chain or, on linkers, in order; H or OH if unused. Where a SMILES comes first, the peptide text is derived from it. Bridges are numbered along the chain shown (N, C = ends). [ ]: non-standard residue; d: D form. X34 = O=C(C[C@@H](Cc1ccccc1)C(=O)[*:2])C12CC(CN[*:1])(C1)C2; X75 = CCC[C@H](N[*:1])c1nncn1[C@@H](Cc1ccccc1)C(=O)[*:2]; Phe(4-guanidino) = N=C(N)Nc1ccc(C[C@H](N)C(=O)O)cc1; Ala(pyrimidin-5-yl) = N[C@@H](Cc1cncnc1)C(=O)O; NMe3Pal(6-Me) = CN[C@@H](Cc1ccc(C)nc1)C(=O)O; X36 = CN([C@@H](Cc1cnn(C)c1)C(=O)[*:2])[*:1]; NMePhe(3-Me) = CN[C@@H](Cc1cccc(C)c1)C(=O)O; Trp(1-Me) = Cn1cc(C[C@H](N)C(=O)O)c2ccccc21; X57 = Cn1ccc(C[C@H](N[*:1])C(=O)[*:2])n1; X11 = CC(C)(F)CC[C@H](N[*:1])C(=O)[*:2]; X15 = O=C([C@H](Cc1cnccc1F)N[*:1])[*:2]; X46 = O=C([C@H](Cc1cccnc1F)N[*:1])[*:2]; 1Nal = N[C@@H](Cc1cccc2ccccc12)C(=O)O; Phe(2-F) = N[C@@H](Cc1ccccc1F)C(=O)O; NMe3Pal = CN[C@@H](Cc1cccnc1)C(=O)O; X1 = O=C(C12CC(CN[*:1])(C1)C2)[*:2]; Aha = [N-]=[N+]=NCC[C@H](N)C(=O)O; NMeOrn(Me) = CNCCC[C@H](NC)C(=O)O; Ala(cPr) = N[C@@H](CC1CC1)C(=O)O; NMeF = CN[C@@H](Cc1ccccc1)C(=O)O; PhLac = O=C(O)[C@@H](O)Cc1ccccc1; 3Pal = N[C@@H](Cc1cccnc1)C(=O)O; d(αMeC) = C[C@@](N)(CS)C(=O)O; Ahp(2) = CCCCC[C@H](N)C(=O)O; Cba = N[C@@H](CC1CCC1)C(=O)O; NMeNle = CCCC[C@H](NC)C(=O)O; hLeu = CC(C)CC[C@H](N)C(=O)O; hLys = NCCCCC[C@H](N)C(=O)O; αMeC = C[C@](N)(CS)C(=O)O; NMeA = CN[C@@H](C)C(=O)O; Nle = CCCC[C@H](N)C(=O)O

target: KRAS-G12D protein (Homo sapiens, UniProt P01116, G12D); experiment: SOS-mediated nucleotide exchange assay (BODIPY-GDP / Tb-streptavidin TR-FRET); type: biochemical
Sequence (P01116 1-188 isoform P01116-2 G12D): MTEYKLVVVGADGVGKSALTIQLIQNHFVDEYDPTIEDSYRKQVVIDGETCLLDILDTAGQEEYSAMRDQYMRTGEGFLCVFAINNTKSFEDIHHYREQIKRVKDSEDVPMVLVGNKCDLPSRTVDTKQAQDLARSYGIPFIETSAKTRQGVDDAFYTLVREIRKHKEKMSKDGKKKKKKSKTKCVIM

Going from `CCCC[C@@H]1NC(=O)[C@H](Cc2cccnc2)NC(=O)[C@H](C)N(C)C(=O)[C@H](Cc2ccccc2)OC(=O)C23CC(CNC(=O)[C@H](Cc4cnn(C)c4)N(C)C(=O)[C@H](CCCC)NC(=O)[C@H](Cc4ccccc4F)NC1=O)(C2)C3` [compound 403, cyclo(FLac-NMeA-3Pal-Nle-Phe2F-Nle-NMeAla4PyzlMe-amBCP)] (cyclo([3Pal][Nle][Phe(2-F)][Nle][X36][X1][PhLac][NMeA])) to `CCCC[C@@H]1NC(=O)[C@H](Cc2cncnc2)NC(=O)[C@H](C)N(C)C(=O)[C@H](Cc2ccccc2)OC(=O)C23CC(CNC(=O)[C@H](Cc4cccnc4)N(C)C(=O)[C@H](CCCC)NC(=O)[C@H](Cc4ccccc4F)NC1=O)(C2)C3` [compound 237, cyclo(FLac-NMeA-PyrimAla-Nle-Phe2F-Nle-NMe3Pal-amBCP)] (cyclo([NMe3Pal][X1][PhLac][NMeA][Ala(pyrimidin-5-yl)][Nle][Phe(2-F)][Nle])), the EC50 rises from 17 nM to 33.7 nM (2-fold).

Going from `CCC[C@@H]1NC(=O)[C@H](Cc2ccc(OC)cc2)NC(=O)[C@H](CC2CCC2)NC(=O)[C@H](Cc2cccnc2)NC(=O)[C@H](CCCNC(=N)N)NC(=O)[C@H](Cc2ccccc2)NC(=O)CSC[C@H](C(N)=O)NC(=O)[C@H](Cc2ccccc2)n2cnnc21` [SEQ ID NO: 64, cyclo(F-R-3Pal-cBuA- TyrOMe-124triazole- dC-ClAc)] ({CH2CO}-FR[3Pal][Cba]Y(Me)[X75][dC]-NH2; thioether N-7) to `CC(C)C[C@@H]1NC(=O)[C@H](Cc2ccc(O)cc2)NC(=O)[C@H](CCCNC(=N)N)NC(=O)[C@H](Cc2ccccc2)NC(=O)CSC[C@@H](C(N)=O)NC(=O)[C@H](Cc2ccccc2)N(C)C(=O)[C@H](CCCCCN)NC(=O)[C@H](Cc2ccc(O)cc2)NC1=O` [compound 13, cyclo(F-R-Y-L-Y-hK-NMcF-Cl-ClAc)] ({CH2CO}-FRYLY[hLys][NMeF]C-NH2; thioether N-8), the EC50 rises from 2820 nM to 5630 nM (2-fold). The first is the more potent here.

Going from `CC(C)CC[C@@H]1NC(=O)[C@H](Cc2cnccc2F)NC(=O)[C@H](CC2CC2)NC(=O)[C@H](Cc2cncnc2)NC(=O)[C@H](C)N(C)C(=O)[C@H](Cc2ccccc2)OC(=O)C23CC(CNC(=O)[C@H](Cc4ccccc4)N(C)C1=O)(C2)C3` [compound 213, cyclo(FLac-NMcA-PyrimAla-cPrA-3Pal6F-hL-NMeF-amBCP)] (cyclo([Ala(cPr)][X15][hLeu][NMeF][X1][PhLac][NMeA][Ala(pyrimidin-5-yl)])) to `CC(C)CC[C@@H]1NC(=O)[C@H](Cc2cccnc2F)NC(=O)[C@H](CC2CC2)NC(=O)[C@H](Cc2cncnc2)NC(=O)[C@H](C)N(C)C(=O)[C@H](Cc2ccccc2)OC(=O)C23CC(CNC(=O)[C@H](Cc4ccccc4)N(C)C1=O)(C2)C3` [compound 215, cyclo(FLac-NMeA-PyrimAla-cPrA-3Pal2F-hL-NMeF-amBCP)] (cyclo([Ala(cPr)][X46][hLeu][NMeF][X1][PhLac][NMeA][Ala(pyrimidin-5-yl)])), the EC50 rises from 3.72 nM to 31 nM (8.3-fold).

Going from `CCCC[C@@H]1NC(=O)[C@H](Cc2cccnc2F)NC(=O)[C@H](C)N(C)C(=O)[C@H](Cc2ccccc2)OC(=O)C23CC(CNC(=O)[C@H](Cc4cccnc4)N(C)C(=O)[C@H](CCCC)NC(=O)[C@H](Cc4ccccc4F)NC1=O)(C2)C3` [compound 117, cyclo(FLac-NMeA~3Pal2F-Nle-Phe2F-Nle-NMe3Pal-amBCP)] (cyclo([NMe3Pal][X1][PhLac][NMeA][X46][Nle][Phe(2-F)][Nle])) to `CCCC[C@@H]1NC(=O)[C@H](Cc2cnc(C#N)nc2)NC(=O)[C@H](C)N(C)C(=O)[C@H](Cc2ccccc2)OC(=O)C23CC(CNC(=O)[C@H](Cc4ccccc4)N(C)C(=O)[C@H](CCCC)NC(=O)[C@H](Cc4ccccc4F)NC1=O)(C2)C3` (single isomer, unassigned) [compound 314, cyclo(FLac-NMeA-AlaPyrim4CN-Nle-Phe2F-Nle-NMeF-amBCP)], the EC50 falls from 1450 nM to 24.8 nM (58-fold). The second is the more potent here.

Going from `CCCC[C@@H]1NC(=O)[C@H](Cc2ccc(NC(=N)N)cc2)NC(=O)[C@H](CCCNC(=N)N)NC(=O)[C@H](Cc2cccc3ccccc23)NC(=O)CSC[C@](C)(C(=O)O)NC(=O)[C@H](Cc2ccccc2)N(C)C(=O)[C@H](CCCC)NC(=O)[C@H](Cc2ccc(O)cc2)NC1=O` [compound 143, cyclo(INal-R-Phe4Gn-Nlc-Y-Nle-NMeF-daMeC-ClAc)] ({CH2CO}-[1Nal]R[Phe(4-guanidino)][Nle]Y[Nle][NMeF][d(αMeC)]-OH; thioether N-8) to `CCCCC[C@@H]1NC(=O)[C@H](Cc2ccc(O)cc2)NC(=O)[C@H](CC(C)C)NC(=O)[C@H](Cc2ccc(O)cc2)NC(=O)[C@H](CCCNC(=N)N)NC(=O)[C@H](Cc2cn(C)c3ccccc23)NC(=O)CSC[C@@H](C(N)=O)NC(=O)[C@H](Cc2ccccc2)N(C)C1=O` [compound 6, cyclo(TrplMe-R-Y-L-Y-Ahp-NMeF-Cl-ClAc)] ({CH2CO}-[Trp(1-Me)]RYLY[Ahp(2)][NMeF]C-NH2; thioether N-8), the EC50 falls from 575 nM to 288 nM (2-fold).

Going from `CCCC[C@@H]1NC(=O)[C@H](Cc2ccccc2F)NC(=O)[C@H](CCN=[N+]=[N-])NC(=O)[C@H](Cc2cccnc2)NC(=O)[C@H](CCCC)N(C)C(=O)[C@H](Cc2ccccc2)OC(=O)C23CC(CNC(=O)[C@H](Cc4cccnc4)N(C)C1=O)(C2)C3` [compound 243, cyclo(FLac-NMeNle-3Pal-DabN3-Phe2F-Nle-NMe3Pal-amBCP)] (cyclo([3Pal][Aha][Phe(2-F)][Nle][NMe3Pal][X1][PhLac][NMeNle])) to `CCCC[C@@H]1NC(=O)[C@H](Cc2ccn(C)n2)NC(=O)[C@H](C)N(C)C(=O)[C@H](Cc2ccccc2)OC(=O)C23CC(CNC(=O)[C@H](Cc4ccccc4)N(C)C(=O)[C@H](CCCC)NC(=O)[C@H](Cc4ccccc4F)NC1=O)(C2)C3` [compound 319, cyclo(FLac-NMeA-MePyzAla-Nle-Phe2F-Nle-NMeF-amBCP)] (cyclo([NMeA][X57][Nle][Phe(2-F)][Nle][NMeF][X1][PhLac])), the EC50 rises from 3060 nM to 5070 nM (1.7-fold).

Going from `CCCCC[C@@H]1NC(=O)[C@H](Cc2ccc(OC)cc2)NC(=O)[C@H](CC2CCC2)NC(=O)[C@H](Cc2cccnc2)NC(=O)[C@H](CCCNC)N(C)C(=O)[C@H](Cc2ccccc2)NC(=O)CSC[C@@](C)(C(N)=O)NC(=O)[C@H](Cc2ccc(C)nc2)N(C)C1=O` [compound 393, cyclo(F-NMeOrnMe-3Pal-cBuA-TyrOMe-Ahp-NMe3Pal4Me-aMeCl-ClAc)] ({CH2CO}-F[NMeOrn(Me)][3Pal][Cba]Y(Me)[Ahp(2)][NMe3Pal(6-Me)][αMeC]-NH2; thioether N-8) to `Cc1cccc(C[C@H]2C(=O)NCC34CC(C3)(C4)C(=O)O[C@@H](Cc3ccccc3)C(=O)N(C)[C@@H](C)C(=O)N[C@@H](Cc3cncnc3)C(=O)N[C@@H](CC3CC3)C(=O)N[C@@H](Cc3ccccc3F)C(=O)N[C@@H](CCC(C)(C)F)C(=O)N2C)c1` [compound 274, cyclo(FLac-NMeA-PyrimAla-cPrA-Phe2F-hL3F-NMePhe3Me-amBCP)] (cyclo([Ala(cPr)][Phe(2-F)][X11][NMePhe(3-Me)][X1][PhLac][NMeA][Ala(pyrimidin-5-yl)])), the EC50 falls from 132 nM to 1 nM (130-fold). The second is the more potent here.

`C[C@H]1C(=O)N[C@@H](Cc2cncnc2)C(=O)N[C@@H](CC2CC2)C(=O)N[C@@H](Cc2ccccc2F)C(=O)N[C@@H](CCC(C)(C)F)C(=O)N(C)[C@@H](Cc2ccccc2)C(=O)NCC23CC(C2)(C3)C(=O)C[C@@H](Cc2ccccc2)C(=O)N1C` [compound 273, cyclo(CPhe-NMeA-PyrimAla-cPrA-Phe2F-hL3F-NMeF-amBCP)] (cyclo([Ala(cPr)][Phe(2-F)][X11][NMeF][X34][NMeA][Ala(pyrimidin-5-yl)])) showed an EC50 of 1 nM.
